From patent publication US10669284B2, “Fused thiazolopyrimidine derivatives as MNKS inhibitors” (LIFEARC, priority 2015, dated 2020) come the findings set out here.

For one assay, the target named is T1, Full-length human MNK2 (Homo sapiens, UniProt Q9HBH9, T379D).
T1 construct: GST (N); purchased Carna Biosciences 02-146; host or cells: baculovirus expression system
As to the kind of experiment: MNK2 biochemical IC50 assay (Caliper Mobility Shift Assay). As to conditions: read-out: P(IC50) MNK2 (converted). An excerpt:
(§1) The phosphorylated peptide product and unphosphorylated peptide substrate were detected using a Caliper Mobility Shift Assay using the Caliper LabChip EZ Reader II.
(§2) The Caliper Mobility Shift Assay technology is based on the utilisation of a microfluidic chip to measure the conversion of a fluorescent non-phosphorylated peptide substrate to phosphorylated product by electrophoresis separation of substrate and product and detection via Laser-induced fluorescence. The LabChip EZ Reader software calculates the relative heights of substrate and product peaks and reports the peak ratio (Product peak(P) divided by the sum of Product peak(P) and Substrate peak(S)). The percent-conversion is calculated as 100×[(P/(P+S)]. All assays were set up to run in the linear phase with a maximum of 10 percent substrate conversion.
(§3) These were N-terminal GST fusion proteins expressed in baculovirus expression system and purified by glutathione sepharose affinity chromatography. […] All other assay reagents were sourced from Sigma.
(§4) The assay incubation times were adjusted depending on the concentration of ATP used. Assays were performed at low (50 uM) and high (1 mM) ATP. The low ATP values were selected to run at Km conditions for the standard assay to allow relative potencies to be compared across other kinases. The high ATP concentration was selected as representative of cellular ATP concentrations, and for an indication of ATP competition, where a significant shift (greater than half log) in apparent potency would be expected compared to Km conditions. All IC50 values reported are the average of at least two independent experiments.
Reactions were performed as above using 10 nM MNK2 in the assay. Standard assays contained 50 uM ATP and high concentration ATP assays contained 1 mM ATP. […] All other conditions were the same.

The target of another assay is T2, Full-length human MNK1 (Homo sapiens, UniProt Q9BUB5, T385D).
T2 construct: GST (N); purchased Carna Biosciences 02-145; host or cells: baculovirus expression system
T2 sequence (Q9BUB5 1-424 isoform Q9BUB5-2 T344D): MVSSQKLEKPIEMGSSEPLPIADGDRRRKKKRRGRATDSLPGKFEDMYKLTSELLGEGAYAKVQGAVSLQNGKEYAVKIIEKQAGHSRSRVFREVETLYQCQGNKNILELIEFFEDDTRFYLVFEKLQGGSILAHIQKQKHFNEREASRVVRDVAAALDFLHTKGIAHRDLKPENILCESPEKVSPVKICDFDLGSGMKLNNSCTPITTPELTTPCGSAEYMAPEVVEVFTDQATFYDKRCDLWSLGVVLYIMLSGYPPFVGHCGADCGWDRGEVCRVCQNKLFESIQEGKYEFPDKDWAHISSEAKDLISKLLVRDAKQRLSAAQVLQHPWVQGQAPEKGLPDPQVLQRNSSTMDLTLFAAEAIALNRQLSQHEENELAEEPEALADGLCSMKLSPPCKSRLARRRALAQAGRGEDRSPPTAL
As to the kind of experiment: MNK1 biochemical IC50 assay (Caliper Mobility Shift Assay). As to conditions: read-out: P(IC50) MNK1 (converted).
From the text: as §1, §2, §3
Compounds were serially diluted in DMSO to generate a 10-point half log dilution curve with a final top concentration of 100 uM in the assay. […] Compounds were pre-incubated with enzyme and peptide in reaction buffer for 30 mins prior to addition of ATP to initiate the reaction. Final assay concentrations were 3 nM MNK1, 2 uM peptide substrate, 50 uM ATP, 50 mM Hepes pH 7.0, 0.01% BSA, 10 mM MgCl2, 1 mM dithiothrietol.
as §4

Assay [1] deals with phosphorylation of eIF4E at ser209 in MV4.11 cell line. As to the kind of experiment: MNK cellular activity phospho-eIF4E detection assay (Alphascreen Surefire). Conditions: Homo sapiens; MV4.11 cell line, phospho-eIF4E (ser209) Alphascreen Surefire; read-out: P(IC50) elF4E (converted). The assay is classed as cell-based. Here is the method: The assay detection is based on the formation of sandwich antibody complexes coupled to donor and acceptor beads. Excitation at 680 nm causes the transfer of a singlet oxygen species between donor and acceptor beads when they are in close proximity by binding to the analyte ([…]), which results in the emission of light at 520-620 nm.
Cells were then lysed and the Alphascreen Surefire protocol followed according to manufacturer's recommendations. 8 ul Acceptor beads (1:50 dilution in kit activation buffer) was added to lysate, shaken 150 rpm for 2 min and incubated for 1.5 hr at room temperature. 3 ul Donor beads (1:20 dilution in kit dilution buffer) were then added, shaken 150 rpm for 2 min and incubated for a further 1.5 hr at room temperature after which the plates were read on Pherastar FS using Alphascreen optic module.
Data were normalised relative to untreated DMSO only controls and curves repeated in duplicate within experiments. Data reported are averages of at least 2 independent experiments.
A general note: In Alpha technology, singlet oxygen from a donor bead excites a nearby acceptor bead.

T1 sequence (Q9HBH9 whole entry T379D): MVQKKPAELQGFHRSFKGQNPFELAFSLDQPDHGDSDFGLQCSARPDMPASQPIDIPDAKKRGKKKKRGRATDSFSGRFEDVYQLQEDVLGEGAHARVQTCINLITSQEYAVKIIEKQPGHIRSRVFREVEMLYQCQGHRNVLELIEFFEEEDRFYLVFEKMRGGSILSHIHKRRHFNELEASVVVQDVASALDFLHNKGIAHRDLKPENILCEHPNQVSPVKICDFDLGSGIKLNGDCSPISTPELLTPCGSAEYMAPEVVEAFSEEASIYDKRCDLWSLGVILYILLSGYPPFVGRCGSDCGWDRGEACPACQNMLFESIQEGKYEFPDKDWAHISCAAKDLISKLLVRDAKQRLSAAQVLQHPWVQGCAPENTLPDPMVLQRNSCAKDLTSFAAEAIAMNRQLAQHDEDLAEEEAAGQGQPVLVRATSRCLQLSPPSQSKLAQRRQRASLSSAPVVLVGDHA

As for `OCc1nc2c(N3CCc4cc(F)ccc43)ncnc2s1` [Example 81, [7-(5-Fluoroindolin-1-yl)thiazolo[5,4-d]pyrimidin-2-yl]methanol], the values for the IC50 (at Full-length human MNK2; at Full-length human MNK1; in assay [1]) were 20 nM, 39.8 nM and 100 nM, respectively.
The matching figures for `NCC1CN(c2ncnc3sc(C(=O)NC4CCOCC4)nc23)c2ccccc21` (stereo not drawn) [Example 119, 7-[3-(Aminomethyl)indolin-1-yl]-N-tetrahydropyran-4-yl-thiazolo[5,4-d]pyrimidine-2-carboxamide]: 15.8 nM, 12.6 nM and 20 nM.
`CNC(=O)c1nc2c(N3CCc4cc(C(F)(F)F)ccc43)ncnc2s1` [Example 158]: the IC50 at Full-length human MNK2 is 126 nM; on Full-length human MNK1 it was 316 nM; in assay [1], 501 nM.
The matching figures for `O=C(NCC1CCNCC1)c1nc2c(N3CC(CCO)c4ccccc43)ncnc2s1` (stereo not drawn) [Example 136]: 5.01 nM, 7.94 nM and 6.31 nM.
In the case of `CNCCC1(C)CN(c2ncnc3sc(C(=O)NC4CCOCC4)nc23)c2ccccc21` (stereo not drawn) [Example 118, 7-[3-Methyl-3-[2-(methylamino)ethyl]indolin-1-yl]-N-tetrahydropyran-4-yl-thiazolo[5,4-d]pyrimidine-2-carboxamide], the IC50 at Full-length human MNK2 was 158 nM; on Full-length human MNK1 it was 126 nM; in assay [1] it was 251 nM.
The like results for `O=C(NCC(O)CO)c1nc2c(N3CCc4ccccc43)ncnc2s1` (stereo not drawn) [Example 104] were, in that order, 12.6 nM, 20 nM and 10 nM.
Turning to `CN1CCC2(CC1)CN(c1ncnc3sc(C(=O)NC4CCOCC4)nc13)c1ccccc12` [Example 40, 7-(1′-Methylspiro[indole-3,4′-piperidin]-1(2H)-yl)-N-(tetrahydro-2H-pyran-4-yl)[1,3]thiazolo[5,4-d]pyrimidine-2-carboxamide], the IC50 at Full-length human MNK2 is 20 nM; at Full-length human MNK1, 12.6 nM; in assay [1] it was 50.1 nM.
The matching figures for `CN(C)C(=O)c1nc2c(N3CCc4cc(F)ccc43)ncnc2s1` [Example 70, 7-(5-fluoroindolin-1-yl)-N,N-dimethyl-thiazolo[5,4-d]pyrimidine-2-carboxamide]: 20 nM, 50.1 nM and 63.1 nM.
For `CNCCC1CN(c2ncnc3sc(C(=O)NC4CCOCC4)nc23)c2ccc(F)cc21` (stereo not drawn) [Example 147, 7-[5-fluoro-3-[2-(methyl-amino)ethyl]indolin-1-yl]-N-tetrahydropyran-4-yl-thiazolo[5,4-d]pyrimidine-2-carboxamide], the IC50 is 10 nM at Full-length human MNK2, 7.94 nM at Full-length human MNK1 and 15.8 nM in assay [1].
For `CN(C)CCCNc1nc2c(N3CCc4cc(F)ccc43)ncnc2s1` [Example 85, N1-(7-(5-fluoroindolin-1-yl)thiazolo[5,4-d]pyrimidin-2-yl)-N3,N3-dimethylpropane-1,3-diamine], the IC50 was 20 nM at Full-length human MNK2, 10 nM on Full-length human MNK1 and 100 nM in assay [1].
Regarding `CC1CN(c2ncnc3sc(C(=O)NC4CCOCC4)nc23)c2ccccc21` (stereo not drawn) [Example 125, 7-(3-Methylindolin-1-yl)-N-tetrahydropyran-4-yl-thiazolo[5,4-d]pyrimidine-2-carboxamide], the IC50 is 3.98 nM on Full-length human MNK2, 3.16 nM on Full-length human MNK1 and 3.98 nM in assay [1].
`CC(C)Oc1ccccc1Nc1ncnc2sc(C(=O)NCCCN(C)C)nc12` [Example 23, N-[3-(Dimethylamino)propyl]-7-(2-isopropoxyanilino)thiazolo[5,4-d]pyrimidine-2-carboxamide]: the IC50 is 63.1 nM on Full-length human MNK2, 100 nM on Full-length human MNK1 and 63.1 nM in assay [1].
Consider `O=C(NC1CCOCC1)c1nc2c(N3CCc4cc(O)ccc43)ncnc2s1` [Example 114, 7-(5-hydroxyindolin-1-yl)-N-tetrahydropyran-4-yl-thiazolo[5,4-d]pyrimidine-2-carboxamide], for which the IC50 on Full-length human MNK2 was 2.51 nM; on Full-length human MNK1 it was 2.51 nM; in assay [1], 1.58 nM.
With `O=C(NC1CCOCC1)c1nc2c(N3CCc4cc(F)ccc43)ncnc2s1` [Example 66, 7-(5-fluoroindolin-1-yl)-N-tetrahydropyran-4-yl-thiazolo[5,4-d]pyrimidine-2-carboxamide], the IC50 at Full-length human MNK2 is 3.98 nM; at Full-length human MNK1, 5.01 nM; in assay [1] it was 10 nM.
The matching figures for `O=C(NC1CCOCC1)c1nc2c(N3CCc4cc(C(F)(F)F)ccc43)ncnc2s1` [Example 112, N-(tetrahydro-2H-pyran-4-yl)-7-(5-(trifluoromethyl)indolin-1-yl)thiazolo[5,4-d]pyrimidine-2-carboxamide]: 126 nM, 200 nM and 316 nM.
Regarding `O=C(NC1COC1)c1nc2c(N3CCc4ccccc43)ncnc2s1` [Example 100, 7-indolin-1-yl-N-(oxetan-3-yl)thiazolo[5,4-d]pyrimidine-2-carboxamide], the figures for the IC50 (at Full-length human MNK2; on Full-length human MNK1; in assay [1]) were 20 nM, 25.1 nM and 15.8 nM, respectively.
The matching figures for `NCCC1CN(c2ncnc3sc(C(=O)NCCC(F)(F)F)nc23)c2ccccc21` (stereo not drawn) [Example 167, 7-[3-(2-aminoethyl)indolin-1-yl]-N-(3,3,3-trifluoropropyl)thiazolo [5,4-d]pyrimidine-2-carboxamide]: 5.01 nM, 7.94 nM and 15.8 nM.
Turning to `O=C(NC1CCOCC1)c1nc2c(N3CCc4cc(Cl)cc(F)c43)ncnc2s1` [Example 91, 7-(5-Chloro-7-fluoro-indolin-1-yl)-N-tetrahydropyran-4-yl-thiazolo[5,4-d]pyrimidine-2-carboxamide], the values for the IC50 (on Full-length human MNK2; on Full-length human MNK1; in assay [1]) were 50.1 nM, 63.1 nM and 100 nM, respectively.
In the case of `CNCCCNC(=O)c1nc2c(N3c4ccccc4C[C@@H]3C)ncnc2s1` [Example 131, N-[3-(methylamino)propyl]-7-[(2S)-2-methylindolin-1-yl]thiazolo[5,4-d]pyrimidine-2-carboxamide], the results for the IC50 (at Full-length human MNK2; at Full-length human MNK1; in assay [1]) were 31.6 nM, 100 nM and 39.8 nM, respectively.
In the case of `CCOc1cc(F)ccc1Nc1ncnc2sc(C(=O)NCCCN(C)C)nc12` [Example 24, N-[3-(Dimethylamino)propyl]-7-(2-ethoxy-4-fluoro-anilino)thiazolo[5,4-d]pyrimidine-2-carboxamide], the IC50 at Full-length human MNK2 is 100 nM; on Full-length human MNK1 it was 100 nM; in assay [1], 79.4 nM.
With `CC1(CCO)CN(c2ncnc3sc(C(=O)NCC4CCNCC4)nc23)c2ccccc21` (stereo not drawn) [Example 144], the results for the IC50 (at Full-length human MNK2; at Full-length human MNK1; in assay [1]) were 15.8 nM, 12.6 nM and 20 nM, respectively.
Take `CO[C@H]1CCC[C@@H](Oc2cc(F)ccc2Nc2ncnc3sc(C(=O)NCC4CCNCC4)nc23)C1` [Example 60, 7-[4-fluoro-2-[(1R,3S)-3-methoxycyclohexoxy]anilino]-N-(4-piperidylmethyl)thiazolo[5,4-d]pyrimidine-2-carboxamide]: the results for the IC50 (at Full-length human MNK2; at Full-length human MNK1; in assay [1]) were 1000 nM, 794 nM and 631 nM, respectively.
The like results for `O=C(NC1CCOCC1)c1nc2c(N3CC(CCN4CCCC4)c4cc(F)ccc43)ncnc2s1` (stereo not drawn) [Example 149, 7-[5-fluoro-3-(2-pyrrolidin-1-ylethyl)indolin-1-yl]-N-tetrahydropyran-4-yl-thiazolo[5,4-d]pyrimidine-2-carboxamide] were, in that order, 50.1 nM, 31.6 nM and 63.1 nM.
As to `CNCCCNC(=O)c1nc2c(N3CCc4ccccc43)ncnc2s1` [Example 97, 7-indolin-1-yl-N-[3-(methylamino)propyl] thiazolo[5,4-d]pyrimidine-2-carboxamide], the IC50 at Full-length human MNK2 was 7.94 nM; on Full-length human MNK1 it was 7.94 nM; in assay [1], 15.8 nM.

One may read the IC50 as the concentration that inhibits the measured activity by half.
